Target: CDK2 (UniProt P24941)
Experiment: Enzyme Assay

SMILES | IC50 [µM]
CN1CCN(c2cccc(NC(=O)Nc3csc(-c4ccncc4)n3)n2)CC1 | < 50
O=C(Nc1ccccn1)Nc1csc(-c2cccnc2)n1 | < 50
O=C(Nc1csc(-c2ccncc2)n1)Nc1cccc2[nH]cnc12 | < 50
O=C(Nc1cccc(N2CCCCC2)n1)Nc1csc(-c2ccncc2)n1 | < 50
O=C(Nc1csc(-c2cccnc2)n1)Nc1nccs1 | < 50
CCCc1cccc(NC(=O)Nc2cccc(-c3cccnc3)c2)n1 | < 50
O=C(Nc1cccc(NCCCN2CCOCC2)n1)Nc1csc(-c2ccncc2)n1 | < 50
CN(C(=O)Nc1csc(-c2ccncc2)n1)c1ccccn1 | < 50
Cc1cccnc1NC(=O)Nc1csc(-c2ccncc2)n1 | < 50
O=C(Nc1cccc(N2CCOCC2)n1)Nc1csc(-c2ccncc2)n1 | < 50
CCN(CC)Cc1cccc(NC(=O)Nc2csc(-c3ccncc3)n2)n1 | < 50
O=C(Nc1csc(-c2cccnc2)n1)Nc1nc(-c2cccnc2)cs1 | < 50
O=C(Nc1ccccn1)Nc1csc(-c2ccccn2)n1 | < 50
O=C(Nc1csc(-c2ccncc2)n1)Nc1nc(-c2cccnc2)cs1 | < 50
CCCc1cccc(NC(=O)Nc2csc(-c3ccnc(CC)c3)n2)n1 | < 50
O=C(Nc1csc(-c2ccncc2)n1)Nc1nccs1 | < 50
Cc1cccc(NC(=O)Nc2csc(-c3cccnc3)n2)n1 | < 50
CCc1ccnc(NC(=O)Nc2csc(-c3ccncc3)n2)c1 | < 50
O=C(Nc1csc(-c2cccnc2)n1)Nc1nc(-c2ccccc2)cs1 | < 50
O=C(Nc1csc(-c2cccnc2)n1)Nc1csc(-c2cccnc2)n1 | < 50

Next, values leading:

IC50 [µM] | SMILES
< 50 | NC(=O)c1ccc(NC(=O)Nc2csc(-c3ccncc3)n2)nc1
< 50 | Cc1ccc(NC(=O)Nc2csc(-c3ccncc3)n2)nc1
< 50 | CCCc1cccc(NC(=O)Nc2csc(-c3ccncc3)n2)n1
< 50 | O=C(Nc1csc(-c2ccncc2)n1)Nc1ccc2ccccc2n1
< 50 | O=C(Nc1csc(-c2ccncc2)n1)Nc1cc2ccccc2c(Br)n1
< 50 | Cc1cccc(NC(=O)Nc2csc(-c3ccncc3)n2)n1
< 50 | CCN(CC)c1cccc(NC(=O)Nc2csc(-c3ccncc3)n2)n1
< 50 | O=C(Nc1ccccn1)Nc1csc(-c2ccncc2)n1
< 50 | O=C(Nc1ccc(C(F)(F)F)cn1)Nc1csc(-c2ccncc2)n1
< 50 | CCc1cccc(NC(=O)Nc2csc(-c3ccncc3)n2)n1
< 50 | CN(C)CCNc1cccc(NC(=O)Nc2csc(-c3ccncc3)n2)n1
< 50 | O=C(Nc1csc(-c2ccncc2)n1)Nc1csc(-c2ccncc2)n1
